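In this assay, cells in 96-well plates receive the compound at five concentrations for 48 hours. Endpoints are linearly interpolated between the surrounding concentrations. TGI is the concentration that stops growth completely.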
How the values were obtained:
Assay in all cases: NCI anticancer screen, dose series, 48 h
[1] = test system: A498 renal
[2] = test system: HT29 colon
[3] = test system: LOX IMVI melanoma
[4] = test system: MDA-MB-435
[5] = test system: MDA-N
[6] = test system: SF-268 CNS
[7] = test system: SF-295 CNS
[8] = test system: TK-10 renal
[9] = test system: UACC-257 melanoma
[10] = test system: SR leukemia
[11] = test system: RPMI-8226 leukemia

Compound | TGI [1] [µM] | TGI [2] [µM] | TGI [3] [µM] | TGI [4] [µM] | TGI [5] [µM] | TGI [6] [µM] | TGI [7] [µM] | TGI [8] [µM] | TGI [9] [µM] | TGI [10] [µM] | TGI [11] [µM]
CCCCCCCCCCCCOC1C(COCCN2CCCCC2)OC2OC(C)(C)OC21 (stereo not given) | 29.3 | 2.53 | 3.01 | 3.17 | 2.9 | 6.44 | 3.15 | 3.55 | 3.18 |  | 
CCSc1nc(N/N=C/c2cccs2)c2cnn(CO)c2n1 | 9.53 | 13.4 |  | 18.9 |  | 23.7 | 29.8 | 21.9 | 26.4 | 26.7 | 
CC#COS(=O)(=O)c1ccc(C)cc1 |  | > 100 | > 100 |  |  | > 100 | > 100 | > 100 | > 100 | > 100 | 60.2
COc1ccc(C2=Nc3ccccc3N=C(SC)C2)cc1 | > 100 | > 100 | 34.6 |  |  | > 100 | > 100 | > 100 | 65.7 | > 100 | 
CC12CCc3ccccc3C1=NNC(=O)C2 (stereo not given) | > 100 | > 100 | > 100 |  |  | > 100 | > 100 | > 100 | > 100 |  | > 100
COc1ccc(Nc2nc(N)c(C(=O)c3ccc(Cl)cc3)s2)cc1 | > 100 | 5.28 | 19.9 | < 0.01 |  | > 67.5 | 15.1 | > 46.3 | > 100 |  | < 0.01
CCCCCCCCCCCCCS(=O)(=O)NCC(N)=O | > 100 | > 100 | > 100 |  |  | > 100 | > 100 | > 100 | > 100 |  | 
O=C1[C@@H]2C(c3ccccc3[N+](=O)[O-])=NO[C@@H]2C(=O)N1c1ccc(Cc2ccc(N3C(=O)[C@H]4C(c5ccccc5[N+](=O)[O-])=NO[C@H]4C3=O)cc2)cc1 | > 100 | > 100 | > 100 |  |  | > 100 | > 100 | > 100 | > 100 | > 100 | > 100
COC(=O)C(=O)C(C(=O)OC)C(=O)C(=O)Nc1c(Cl)cc([N+](=O)[O-])cc1Cl (stereo not given) | > 100 | > 100 | > 100 | > 100 | > 100 | > 100 | > 100 | > 100 | > 100 |  | > 100
CC(=O)[C@@]1(c2ccccc2)CC2(CCN(C)CC2)O[C@H]1C | > 100 | > 100 | > 100 | > 100 | > 100 | > 100 | > 100 | > 100 | > 100 |  | > 100
COC(=O)c1ccccc1C1CN=NC12Cc1ccc3c(c1C2=O)CCC3 (stereo not given) | > 100 | > 100 | > 100 | > 100 | > 100 | > 100 | > 100 | > 100 | > 100 |  | 
COc1ccc(-c2cc(-c3ccc(Nc4ccnc5cc(Cl)ccc45)cc3)[nH]c(=O)c2C#N)cc1 | > 100 |  | > 100 | > 100 |  | > 100 | > 100 | > 100 |  | > 100 | > 100
Cc1ccc(S(=O)(=O)NNS(C)(=O)=O)cc1 |  | > 100 | > 100 |  |  | > 100 | > 100 | > 100 | > 100 | > 100 | > 100
CCCCOC(=O)NC(=O)c1cn(CCCOC(=O)CCCCCCCCC(=O)OCCCn2cc(C(=O)NC(=O)OCCCC)c(=O)n(C)c2=O)c(=O)n(C)c1=O | > 100 | > 100 |  |  |  | > 100 | > 100 | > 100 | > 100 | > 100 | > 100
COc1ccc([C@H]2CC3C(=O)N(c4ccc(OC)cc4)C(=O)C3c3[nH]c4ccccc4c32)cc1 (stereo not given in full) | > 100 |  | > 100 |  |  | > 100 | 78.3 | > 100 | > 100 |  | 
O=S(=O)(c1ccccc1)c1ccc(-c2nc(-c3ccc4c(c3)Sc3ccccc3S4)cs2)cc1 |  | > 100 | > 100 | > 100 |  | > 100 | 47.4 | 73.6 | > 100 | > 100 | > 100
CCN(CC)CCC1CCCCN1CC(=O)N1c2cc(Cl)ccc2NC(=O)CC1C (stereo not given) | > 100 | > 100 | > 100 | > 100 | > 100 | > 100 | > 100 | > 100 |  |  | > 100
C(=C/c1nnnn1-c1ccccc1)/Nc1ccccc1 | > 100 | > 100 | > 100 | 92.9 | 70.4 | > 100 | 85.3 | 77.5 | > 100 |  | > 100
Brc1ccc(-c2cc3c(cc2C2SCCS2)OCO3)cc1 | 93.3 | > 100 | > 100 |  |  | > 100 | > 100 | > 100 | > 100 | 86.9 | 
CCN(CC)c1c(C)nnn1C1OC(COC(C)=O)C(OC(C)=O)C(OC(C)=O)C1OC(C)=O (stereo not given) | > 100 | > 100 |  |  |  | > 100 | > 100 | > 100 | > 100 |  | 78.3
CSC(C1c2ccccc2N(C)c2[nH]c(=O)n(C)c(=O)c21)S(=O)(=O)c1ccc(C)cc1 (stereo not given) | > 100 | > 100 | > 100 |  |  | > 100 | > 100 | > 100 | > 100 |  | 
COc1ccc2nc3ccccc3c(NCCCCN(CCCl)CCCl)c2c1 | 4.21 | > 100 |  | 21.4 |  | 2.36 | 18.6 |  | 3.34 | 2.79 | 0.943
CCO/C(O)=c1/s/c(=C(\C#N)c2nc3ccccc3[nH]2)n(-c2ccccc2)c1=N | > 100 | > 100 | > 100 |  |  | > 100 | > 100 | > 100 | > 100 |  | 
